IC50 data for 26 molecules are collected here from patent publication US9334264B2, “NAMPT inhibitors” (AbbVie Inc., priority 2012, dated 2016).

Experiment [1] deals with NAMPT (Homo sapiens, UniProt P43490). Description: Time-Resolved Fluorescence Resonance Energy Transfer (TR-FRET) Binding Assay of NAMPT with PRPP. The following applies: 200 μM PRPP and 2.5 mM ATP; 2 nM NAMPT, 2 nM probe, equilibrated 16 hours. How it is done: Time-Resolved Fluorescence Resonance Energy Transfer (TR-FRET) Binding Assay of NAMPT with PRPP
Chain of NAMPT (P43490 whole entry): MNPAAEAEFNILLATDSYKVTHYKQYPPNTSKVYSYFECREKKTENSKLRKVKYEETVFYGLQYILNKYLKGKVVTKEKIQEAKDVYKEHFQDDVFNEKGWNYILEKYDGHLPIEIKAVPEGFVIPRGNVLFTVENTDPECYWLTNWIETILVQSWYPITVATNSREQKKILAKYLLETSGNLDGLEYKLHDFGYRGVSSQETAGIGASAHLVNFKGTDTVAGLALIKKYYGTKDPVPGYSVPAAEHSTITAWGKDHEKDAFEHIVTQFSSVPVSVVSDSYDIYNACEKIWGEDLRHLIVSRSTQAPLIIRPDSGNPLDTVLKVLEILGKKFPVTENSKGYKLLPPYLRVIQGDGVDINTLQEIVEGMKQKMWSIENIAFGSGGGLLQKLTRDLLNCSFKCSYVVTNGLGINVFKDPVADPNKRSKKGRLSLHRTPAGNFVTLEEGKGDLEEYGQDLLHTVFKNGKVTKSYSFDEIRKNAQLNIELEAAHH
Compound handling and data processing were identical to the assay in the absence of substrates (above). Final concentrations were 1× assay buffer, 2% DMSO, 2 nM NAMPT, 2 nM probe, 1 nM Tb-anti-His antibody (Invitrogen #PV5895), 200 μM PRPP and 2.5 mM ATP. Reactions were equilibrated for 16 hours prior to measurement to allow for potential enzymatic modification of test compounds.

For experiment [2], the target named is NAMPT (human, recombinant, C-terminally His-tagged) (Homo sapiens, UniProt P43490). Description: Time-Resolved Fluorescence Resonance Energy Transfer (TR-FRET) Binding Assay of NAMPT. The note with it: absence of substrates; 6.8 nM NAMPT, 200 nM probe, equilibrated 3 hours. The procedure:
Determination of the utility of compounds having Formula (I) as binders to and inhibitors of NAMPT was performed using Time-Resolved Fluorescence Resonance Energy Transfer (TR-FRET) binding assays.
Time-Resolved Fluorescence Resonance Energy Transfer (TR-FRET) Binding Assay of NAMPT
Test compounds were serially diluted (typically 11 half log dilutions) in neat DMSO to 50× final concentrations prior to dilution with assay buffer (50 mM HEPES (NaOH), pH 7.5, 100 mM NaCl, 10 mM MgCl2, 1 mM DTT, 1% Glycerol) to 3× and 6% DMSO. Six μL were transferred to 384-well low-volume plates (Owens Corning #3673). To this, 12 μL of a 1.5× solution containing enzyme, probe and antibody were added. Final concentrations in the 18 μL reactions were 1× assay buffer, 2% DMSO, 6.8 nM NAMPT (human, recombinant, C-terminally His-tagged), 200 nM probe (a potent nicotinamide-competitive inhibitor conjugated to Oregon Green 488) and 1 nM Tb-anti-His antibody (Invitrogen #PV5895). Reactions were equilibrated at room temperature for 3 hours prior to reading on an Envision multi-label plate reader (Perkin Elmer; Ex=337 nm, Em=520 and 495 nm). Time-resolved FRET ratios (Em520/Em495) were normalized to controls, plotted as a function of compound concentration and fit with the four-parameter logistic equation to determine IC50s.

Chain of NAMPT (human, recombinant, C-terminally His-tagged) (P43490 whole entry): as above

Take `CCOCCNC(=O)N(Cc1ccc(F)cc1)c1ncc(C(=O)NCCCn2ccnc2)s1` [Example 83, 2-{[(2-ethoxyethyl)carbamoyl](4-fluorobenzyl)amino}-N-[3-(1H-imidazol-1-yl)propyl]-1,3-thiazole-5-carboxamide]: the half-inhibitory concentration (IC50) in experiment [1] was 0.998 nM; in experiment [2] it was 2890 nM.

`O=C(NCCCn1ccnc1)c1cnc(N(Cc2ccc(F)cc2)Cc2cc(Cl)ccc2Cl)s1` [Example 17, 2-[(2,5-dichlorobenzyl)(4-fluorobenzyl)amino]-N-[3-(1H-imidazol-1-yl)propyl]-1,3-thiazole-5-carboxamide] gave an IC50 in experiment [1] of 1220 nM.

Regarding `CC(C)OCCNC(=O)N(Cc1ccc(F)cc1)c1ncc(C(=O)NCCCn2ccnc2)s1` [Example 87, 2-[(4-fluorobenzyl){[2-(propan-2-yloxy)ethyl]carbamoyl}amino]-N-[3-(1H-imidazol-1-yl)propyl]-1,3-thiazole-5-carboxamide], the values for the half-inhibitory concentration (IC50) in experiment [1] and in experiment [2] were 1.26 nM and 2260 nM, respectively.

`O=C(NCCCn1ccnc1)c1cnc(N(Cc2ccc(F)cc2)Cc2ccc(-c3cccnc3)cc2)s1` [Example 1, 2-{(4-fluorobenzyl)[4-(pyridin-3-yl)benzyl]amino}-N-[3-(1H-imidazol-1-yl)propyl]-1,3-thiazole-5-carboxamide]: in experiment [2], the concentration for half-maximal inhibition (IC50) was 63.8 nM.

With `N#Cc1ccc(CN(C(=O)NCCCN2CC(O)C2)c2ncc(C(=O)NCCCn3ccnc3)s2)cc1` [Example 149, 2-[(4-cyanobenzyl){[3-(3-hydroxyazetidin-1-yl)propyl]carbamoyl}amino]-N-[3-(1H-imidazol-1-yl)propyl]-1,3-thiazole-5-carboxamide], the IC50 is 94.2 nM in experiment [1] and more than 10000 nM in experiment [2].

Consider `O=C(NCCCn1ccnc1)c1cnc(N(Cc2ccc(F)cc2)Cc2c(Cl)ccc3c2OCO3)s1` [Example 14, 2-{[(5-chloro-1,3-benzodioxol-4-yl)methyl](4-fluorobenzyl)amino}-N-[3-(1H-imidazol-1-yl)propyl]-1,3-thiazole-5-carboxamide], for which the IC50 in experiment [1] was found to be 338 nM.

Take `O=C(NCCCn1ccnc1)c1cnc(N(Cc2ccc(F)cc2)Cc2ccccc2Cl)s1` [Example 16, 2-[(2-chlorobenzyl)(4-fluorobenzyl)amino]-N-[3-(1H-imidazol-1-yl)propyl]-1,3-thiazole-5-carboxamide]: the half-inhibitory concentration (IC50) was 217 nM in experiment [1] and 4720 nM in experiment [2].

For the molecule `CC(C)CCN(Cc1cccc(F)c1)c1ncc(C(=O)NCCCn2ccnc2)s1` [Example 56, 2-[(3-fluorobenzyl)(3-methylbutyl)amino]-N-[3-(1H-imidazol-1-yl)propyl]-1,3-thiazole-5-carboxamide], the half-inhibitory concentration (IC50) amounted to 0.719 nM in experiment [1] and 6070 nM in experiment [2].

In the case of `CCOC(=O)CC(NC(=O)N(Cc1ccc(C#N)cc1)c1ncc(C(=O)NCCCn2ccnc2)s1)C(C)C` (centres unmarked) [Example 162, ethyl 3-{[(4-cyanobenzyl)(5-{[3-(1H-imidazol-1-yl)propyl]carbamoyl}-1,3-thiazol-2-yl)carbamoyl]amino}-4-methylpentanoate], the IC50 was found to be 187 nM in experiment [1] and 3330 nM in experiment [2].

For `CC(C)CC(=O)N(CCc1ccc(F)cc1)c1ncc(C(=O)NCCCn2ccnc2)s1` [Example 45, 2-{[2-(4-fluorophenyl)ethyl](3-methylbutanoyl)amino}-N-[3-(1H-imidazol-1-yl)propyl]-1,3-thiazole-5-carboxamide], the 50% inhibitory concentration (IC50) in experiment [1] worked out at 0.206 nM; in experiment [2] it was 611 nM.

With `O=C(NCCCn1ccnc1)c1cnc(N(Cc2ccc(F)cc2)C(=O)CN2CCOCC2)s1` [Example 40, 2-[(4-fluorobenzyl)(morpholin-4-ylacetyl)amino]-N-[3-(1H-imidazol-1-yl)propyl]-1,3-thiazole-5-carboxamide], the IC50 is 1.99 nM in experiment [1] and 2200 nM in experiment [2].

`O=C(NCCCn1ccnc1)c1cnc(N(Cc2ccc(F)cc2)C(=O)C[n+]2ccccc2)s1` [Example 44, 1-{2-[(4-fluorobenzyl)(5-{[3-(1H-imidazol-1-yl)propyl]carbamoyl}-1,3-thiazol-2-yl)amino]-2-oxoethyl}pyridinium]: the half-inhibitory concentration (IC50) was 7.77 nM in experiment [1] and more than 10000 nM in experiment [2].

As to `O=C(NCCCn1ccnc1)c1cnc(N(Cc2ccc(F)cc2)C(=O)CN2CCCC(O)C2)s1` (centres unmarked) [Example 41, 2-{(4-fluorobenzyl)[(3-hydroxypiperidin-1-yl)acetyl]amino}-N-[3-(1H-imidazol-1-yl)propyl]-1,3-thiazole-5-carboxamide], the IC50 stood at 29.7 nM in experiment [1] and 8500 nM in experiment [2].

Consider `COCCC(=O)N(CCc1ccccc1F)c1ncc(C(=O)NCCCn2ccnc2)s1` [Example 108, 2-{[2-(2-fluorophenyl)ethyl](3-methoxypropanoyl)amino}-N-[3-(1H-imidazol-1-yl)propyl]-1,3-thiazole-5-carboxamide acetate (1:1)], for which the IC50 in experiment [1] was 1.61 nM; in experiment [2], 1450 nM.

Turning to `O=C(NCCCn1ccnc1)c1cnc(N(Cc2ccc(F)cc2)C(=O)N2CCC3(C2)OCCO3)s1` [Example 67, N-(4-fluorobenzyl)-N-(5-{[3-(1H-imidazol-1-yl)propyl]carbamoyl}-1,3-thiazol-2-yl)-1,4-dioxa-7-azaspiro[4.4]nonane-7-carboxamide], the IC50 was 3.53 nM in experiment [1] and more than 10000 nM in experiment [2].

Turning to `CNC(=O)CN(Cc1ccc(F)cc1)c1ncc(C(=O)NCCCn2ccnc2)s1` [Example 18, 2-{(4-fluorobenzyl)[2-(methylamino)-2-oxoethyl]amino}-N-[3-(1H-imidazol-1-yl)propyl]-1,3-thiazole-5-carboxamide], the results for the IC50 in experiment [1] and in experiment [2] were 814 nM and 4820 nM, respectively.

Turning to `COCCC(=O)N(CC(O)c1ccc(OC)cc1)c1ncc(C(=O)NCCCn2ccnc2)s1` (centres unmarked) [Example 109, 2-{[2-hydroxy-2-(4-methoxyphenyl)ethyl](3-methoxypropanoyl)amino}-N-[3-(1H-imidazol-1-yl)propyl]-1,3-thiazole-5-carboxamide acetate (1:1)], the half-inhibitory concentration (IC50) in experiment [1] is 3.74 nM; in experiment [2], more than 10000 nM.

For the molecule `O=C(NCCCn1ccnc1)c1cnc(N(Cc2ccc(F)cc2)C(=O)NC2CCCOC2)s1` (centres unmarked) [Example 92, 2-[(4-fluorobenzyl)(tetrahydro-2H-pyran-3-ylcarbamoyl)amino]-N-[3-(1H-imidazol-1-yl)propyl]-1,3-thiazole-5-carboxamide], the concentration for half-maximal inhibition (IC50) in experiment [1] was 0.868 nM; in experiment [2], more than 10000 nM.

Turning to `COCCNC(=O)N(Cc1ccc(F)cc1)c1ncc(C(=O)NCCCn2ccnc2)s1` [Example 82, 2-{(4-fluorobenzyl)[(2-methoxyethyl)carbamoyl]amino}-N-[3-(1H-imidazol-1-yl)propyl]-1,3-thiazole-5-carboxamide], the results for the IC50 in experiment [1] and in experiment [2] were 1.72 nM and 7540 nM, respectively.

For `N#Cc1ccc(CCN(C(=O)CC2CCOC2)c2ncc(C(=O)NCCCn3ccnc3)s2)cc1` (centres unmarked) [Example 52, 2-{[2-(4-cyanophenyl)ethyl](tetrahydrofuran-3-ylacetyl)amino}-N-[3-(1H-imidazol-1-yl)propyl]-1,3-thiazole-5-carboxamide], the values for the IC50 in experiment [1] and in experiment [2] were 0.881 nM and 1010 nM, respectively.

Consider `COCCC(=O)N(Cc1cnccc1C)c1ncc(C(=O)NCCCn2ccnc2)s1` [Example 97, N-[3-(1H-imidazol-1-yl)propyl]-2-{(3-methoxypropanoyl)[(4-methylpyridin-3-yl)methyl]amino}-1,3-thiazole-5-carboxamide], for which the half-inhibitory concentration (IC50) in experiment [1] was 5.89 nM; in experiment [2] it was more than 10000 nM.

Turning to `CN(C)C(=O)CN(Cc1ccc(F)cc1)c1ncc(C(=O)NCCCn2ccnc2)s1` [Example 20, 2-{[2-(dimethylamino)-2-oxoethyl](4-fluorobenzyl)amino}-N-[3-(1H-imidazol-1-yl)propyl]-1,3-thiazole-5-carboxamide], in experiment [1], the IC50 came out at 12500 nM.

`CN(Cc1ccc(F)cc1)c1ncc(C(=O)NCCCn2ccnc2)s1` [Example 3, 2-[(4-fluorobenzyl)(methyl)amino]-N-[3-(1H-imidazol-1-yl)propyl]-1,3-thiazole-5-carboxamide] came in with a 50% inhibitory concentration (IC50) in experiment [1] of 71.5 nM.

In experiment [1], `CN(C)CC(=O)N(Cc1ccc(F)cc1)c1ncc(C(=O)NCCCn2ccnc2)s1` [Example 26, 2-[(N,N-dimethylglycyl)(4-fluorobenzyl)amino]-N-[3-(1H-imidazol-1-yl)propyl]-1,3-thiazole-5-carboxamide] yielded an IC50 of 1.21 nM.

Consider `O=C(NCCCn1ccnc1)c1cnc(N(CCN2CCCC2)Cc2ccc(F)cc2)s1` [Example 9, 2-{(4-fluorobenzyl)[2-(pyrrolidin-1-yl)ethyl]amino}-N-[3-(1H-imidazol-1-yl)propyl]-1,3-thiazole-5-carboxamide], for which the IC50 in experiment [1] turned out to be 641 nM.

Molecule `CC(C)NC(=O)CN(Cc1ccc(F)cc1)c1ncc(C(=O)NCCCn2ccnc2)s1` [Example 19, 2-{(4-fluorobenzyl)[2-oxo-2-(propan-2-ylamino)ethyl]amino}-N-[3-(1H-imidazol-1-yl)propyl]-1,3-thiazole-5-carboxamide] showed a half-maximal inhibitory concentration (IC50) in experiment [1] of 12500 nM.
